Assay results from patent US20250275968A1, “INHIBITORS OF TAU PROTEINS” (DEUTSCHES ZENTRUM FÜR NEURODEGENERATIVE ERKRANKUNGEN E.V., priority 2022, published 2025).
Counter-ions that a name gives are not always drawn. Values belong to the compound of their own block, whether it stands above or below them.

Experiments:
[1] = test system: HEK293T biosensor cells expressing the human tau repeat domain (RD) harboring the P301L/V337M mutation (TauRD^LM-GFP); assay: HEK biosensor cell tau seeding assay; type: cell-based; settings: for compound concentration up to which total amount of cells remained close to 100% (low toxicity): HEK biosensor cells, relative to vehicle (DMSO)
Procedure: Compound stock solutions were prepared as 10 mM compound in DMSO.
HEK293T biosensor cells expressing the human tau repeat domain (RD) harboring the P301L/V337M mutation and fused to a C-terminal GFP tag (named TauRD^LM-GFP) were engineered to probe Tau seeding in cellula (Reference: Liu, S., Hossinger, A., Heumüller, S E. et al. Highly efficient intercellular spreading of protein misfolding mediated by viral ligand-receptor interactions. Nat Commun 12, 5739 (2021). https://doi.org/10.1038/s41467-021-25855-2). HEK cells expressing the P301L human full-length Tau, C-terminally tagged with GFP were incubated with pre-sonicated hTau40^P301L fibrils to induce Tau aggregate formation. Cells were harvested and the resulting cell lysate was used to seed Tau aggregation in further experiments with HEK TauRD^LM-GFP cells.
In a typical seeded assay, HEK cells were incubated with cell lysate, compounds (0-40 μM) and lipofectamine for 22-48 hours. Negative control experiments in the absence of compounds (only with vehicle DMSO) and in the presence of cell lysate were performed in parallel.
Dose response curves were constructed by quantifying the number of cells with aggregates for each compound concentration. The curves were fitted with a sigmoid function using Graphpad PRISM version 8. The inhibitory concentration at 50% activity (IC50) was determined for each compound.

2N4R Tau fibrils = target: T1, 2N4R Tau fibrils (Homo sapiens, UniProt P10636); assay: Saturation transfer difference (STD) NMR with tau fibrils; type: binding; settings: 48-fold excess of compound, 100 mM NaCl, 2.5% (v/v) DMSO, pH 6.8, 37° C.
T1 construct: Full-length 2N4R tau was incubated with Osimertinib mesylate
T1 sequence (P10636 1-441 isoform P10636-8): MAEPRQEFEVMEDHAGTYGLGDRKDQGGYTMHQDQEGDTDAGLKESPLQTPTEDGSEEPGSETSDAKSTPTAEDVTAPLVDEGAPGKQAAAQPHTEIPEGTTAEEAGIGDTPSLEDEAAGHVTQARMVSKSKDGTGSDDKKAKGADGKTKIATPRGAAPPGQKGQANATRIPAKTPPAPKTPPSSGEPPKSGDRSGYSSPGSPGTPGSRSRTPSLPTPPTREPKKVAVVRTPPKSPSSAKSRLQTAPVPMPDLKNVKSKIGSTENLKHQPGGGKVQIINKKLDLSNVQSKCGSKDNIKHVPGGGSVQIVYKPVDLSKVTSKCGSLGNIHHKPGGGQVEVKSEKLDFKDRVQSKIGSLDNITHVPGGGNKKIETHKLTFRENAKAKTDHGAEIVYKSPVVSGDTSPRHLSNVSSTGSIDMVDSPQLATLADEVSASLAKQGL
Procedure: 2N4R Tau fibrils were prepared using the aggregation procedure described in the section in vitro assay 1 without Thioflavin T. The mole ratio of “free” compound to fibrils was 48:1 (corresponding to a total compound concentration of 250 μM and a total fibril concentration of 5 μM Tau). The NMR samples were prepared in 50 mM sodium phosphate with 100 mM NaCl and 2.5% (v/v) DMSO at pH 6.8. The spectra were recorded at 37° C. using a Bruker 700 MHz spectrometer equipped with a triple resonance cryoprobe. 1D ^1H-NMR STD spectra were acquired in an interleaved manner, alternating between off-resonance irradiation at 60 ppm and on-resonance irradiation at −2 ppm.

15N-labeled 2N4R tau = target: T2, 15N-labeled 2N4R tau (Homo sapiens, UniProt P10636); assay: SOFAST-HMQC NMR binding to monomeric tau; settings: 18 μM tau, 50 mM sodium phosphate pH 6.8, 16 h at 37° C., spectra at 5° C.
T2 construct: Full-length 2N4R tau was incubated with Osimertinib mesylate
T2 sequence (P10636 1-441 isoform P10636-8): as above
Text: (A) Overlaid spectra of 2N4R tau with (black) and without (grey) a 100-fold molar excess of Osimertinib mesylate.
To obtain residue-specific information about the interaction between Tau and the compounds, ^1H-^15N correlation spectra of 2N4R Tau were monitored over the course of a titration with increasing amounts of compound. The ^1H-^15N SOFAST-HMQC (Reference: Schanda, P., Kupce, E. & Brutscher, B. SOFAST-HMQC experiments for recording two-dimensional heteronuclear correlation spectra of proteins within a few seconds. J. Biomol. NMR 33, 199-211 (2005)) spectra of [U-^15N]-Tau were acquired at 5° C. on a Bruker 800 MHz spectrometer equipped with a triple-resonance cryoprobe. Tau samples (18-25 μM) were prepared in NMR buffer containing 10% (v/v) D2O, and with compound concentrations that corresponded to Tau:compound mole ratios of 1:10 and 1:100. All NMR samples were incubated overnight (˜16 h) at 37° C. prior to spectral acquisition. Tau amide assignments were taken from a previous study (Reference: Mukrasch, M. et al. Structural polymorphism of 441-residue tau at single residue resolution. PLoS Biol. 7, e34 (2009)). However, because previous assignments were obtained using a Tau sample prepared in the presence of reducing agents, some amide resonances belonging to the repeat region of Tau (close to C291 and C322) were not unambiguously transferred to the SOFAST-HMQC spectra acquired under oxidizing conditions. Therefore, to obtain nearly complete backbone assignments in the repeat region, 3D HNCA, 3D HNCOCA, and 3D CBCACONH spectra were recorded for a [U-^13C,^15N]-4R Tau (K18 construct) sample prepared under the same buffer condition. The weighted, normalized chemical shift perturbations (CSP) were calculated as CSP=√[0.5 [(Δδ H)^2+(Δδ N)^2/25]. NMR signal intensity ratios, I/I0 (where I is the peak intensity of Tau amide backbone resonances in the presence of the compounds, and I0 is the peak intensity in the absence of the compounds), were calculated for each titration point.

2N4R tau aggregates = target: T3, 2N4R tau aggregates (Homo sapiens, UniProt P10636); assay: Dissolution of preformed 2N4R tau fibrils (ThT fluorescence, TEM); type: biochemical; settings: compounds added to tau fibrils after about 40 h; tau monomer:Compound 1:3 and 1:10
T3 construct: Full-length 2N4R tau was incubated with Osimertinib mesylate
T3 sequence (P10636 1-441 isoform P10636-8): as above
Procedure: (A) ThT fluorescence curves monitoring tau aggregation. tau fibrillization reached a saturation point within about 40 h, then compounds or buffer (Reference) were added to tau fibrils (tau monomer:Compound mole ratios 1:3 and 1:10). The experiment was performed in duplicate. […] Statistically significant differences were determined by one-way ANOVA with Dunnett's multiple comparison test. Significant differences corresponding to p≤0.0002(***) and p≤0.0001(****) are indicated. […] Scale bars are 500 nm. […] The dotted line corresponds to one standard deviation above the Reference value.
(§1) To prepare the Tau fibril seeds by de novo aggregation, 2N4R Tau at a monomer concentration of 25 μM was diluted in aggregation buffer. The working concentration of TCEP in the aggregation mixture was <25 μM after dilution of the stock. To this mixture, Thioflavin T (ThT) was added to a final concentration of 50 μM. A total volume of 100 μL of the Tau-ThT mixture was incubated in a well of a 96-well microplate (Greiner Bio-one), in the presence of two polytetrafluoroethylene beads. The microplate was subjected to a program implemented in a Tecan Spark plate reader that involved incubating at 37° C., with intervals of double orbital shaking and ThT fluorescence emission measurement. The excitation wavelength for ThT was set as 430 nm and the emission wavelength was 485 nm. Details of this plate reader program were published previously (Reference: Chakraborty, P. et al. Co-factor-free aggregation of tau into seeding-competent RNA-sequestering amyloid fibrils. Nat. Commun. 12, 4231 (2021)). […] The fibril-containing mixture collected from the microplate served as a seeding mixture for the subsequent aggregation assays.
Fibril samples were negative stained using glow discharged 400 mesh carbon-coated copper grids. After staining using a 1% uranyl acetate solution, images were acquired on a Talos L120C transmission electron microscope (Thermo Fisher, Eindhoven, The Netherlands).

[2] = test system: tau-induced degeneration of Drosophila eyes (GMR-Gal4/WT tau); assay: Drosophila neurodegeneration model (eye degeneration); type: in vivo; settings: GMR-Gal4/WT tau flies treated in food from larvae stage to adult stage
Procedure: Stock solutions of individual compounds were prepared by dissolving 10 mg of the compound in 100 μl of 100% DMSO. Osimertinib, Osimertinib mesylate and AZ7550 mesylate were orally fed to the flies by mixing them with food. The final concentration of each compound, which was used for treating the Drosophila, was derived on the basis of recommended concentrations for human use (reference concentration) based on body weight.
We have used three concentrations for each compound. One was equal to the reference concentration, and two were higher than the reference concentration. Final concentrations of different compounds mixed with fly food are: Osimertinib mesylate, […]; Osimertinib, […]; AZ 7550 mesylate, 10 µM and 20 µM. After hatching, first instar larvae were transferred onto the food containing one of the compounds. Food mixed with drug at required concentration was replaced with fresh food every 48 h.
Light microscopy was performed after mounting the fly heads on the glass slide using a double-sided adhesive tape. Full-eye images were captured with the help of an Infinity Analyze camera attached to an Olympus SZX7 microscope with a halogen light source. Total eye surface area and degenerated eye surface area were marked and calculated with Infinity Analyze software (Lumenera corporation). Percentage of degenerated area was calculated and plotted using GraphPad Prism 8.
After the eclosion, treated and control flies (2-3 days old) were fixed in 1% formaldehyde for two hours, followed by serial dehydration steps of 12 hrs each in 25%, 50%, 75% and 100% ethanol were carried out. Flies were stored in 100% ethanol and dried with CPD before mounting on the stab for imaging. Eye Images were captured at 150× and analyzed using Infinity Analyze software.

2N4R tau = target: T4, 2N4R tau (Homo sapiens, UniProt P10636); assay: In vitro seeded aggregation/fibrillization assay of 2N4R tau (ThT fluorescence); type: biochemical
T4 construct: Full-length 2N4R tau was incubated with Osimertinib mesylate
T4 sequence (P10636 1-441 isoform P10636-8): as above
Procedure: Aggregation of 2N4R Tau was performed using a previously published co-factor-free aggregation protocol, with a few modifications (Reference: Chakraborty, P. et al. Co-factor-free aggregation of tau into seeding-competent RNA-sequestering amyloid fibrils. Nat. Commun. 12, 4231 (2021)). Aggregation experiments used the Tau protein stock prepared in 25 mM HEPES pH 7.4, 1 mM TCEP. Stocks of compounds were prepared in aggregation buffer (25 mM HEPES, 10 mM KCl, 5 mM MgCl2, pH 7.2) or in DMSO (10 mM compound).
as §1
Seeded aggregation assays were performed as described above but with 1.0% of the well volume occupied by the seeding mixture sonicated for 1 minute. The assays were performed in the presence and absence of compounds, and working concentrations ranged from 0-250 μM compound.
Analyses of the fluorescence curves were performed using Graphpad PRISM version 8. Fluorescence data were fit to a sigmoid function. The number of hours corresponding to half-maximal ThT Fluorescence™ as well as the span of fluorescence intensity (Span) were determined for each sigmoid curve. Statistically significant differences were determined by one-way ANOVA analysis with Dunnett's multiple comparison test or unpaired t-test.

tau(244-372, 13818 Da) = target: T5, tau(244-372, 13818 Da) (Homo sapiens, UniProt P10636); assay: ESI-MS covalent modification of tau; type: binding
T5 construct: comprising residues 244-372 of 2N4R Tau
T5 sequence (P10636 561-689): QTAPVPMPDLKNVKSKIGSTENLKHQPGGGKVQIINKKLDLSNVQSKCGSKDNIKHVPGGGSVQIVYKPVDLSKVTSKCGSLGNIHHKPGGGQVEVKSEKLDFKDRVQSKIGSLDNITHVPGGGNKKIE
Procedure: This analysis was performed using the 4R Tau construct (K18 construct, 13818 Da) comprising residues 244-372 of 2N4R Tau. Compounds (330 μM) were incubated with 4R Tau (65 μM) for 16 h at 37° C. in 10 mM ammonium bicarbonate at pH 7.0. The compound/4R Tau mixtures were injected into an LC system (ACQUITY) coupled to a single quadrupole mass detection system (SQ Detector 2, Waters) with diode-array detectors (DAD). The DAD spectrum covers wavelengths of 210-400 nm. Components of the compound-4R Tau mixture were separated using a BioResolve RP mAb column (Waters) with a gradient of 5-95% buffer B (buffer A is 0.1% TFA in water and buffer B is 0.1% TFA in acetonitrile). Covalent modification of 4R Tau corresponded to mass additions of 500 Da (Osimertinib) and 486 Da (AZ7550 or AZ5104).

Structure (SMILES): C=CC(=O)Nc1cc(Nc2nccc(-c3cn(C)c4ccccc34)n2)c(OC)cc1N(C)CCNC [AZ7550 hydrochloride, N-[4-methoxy-5-[4-(1-methyl-1H-indol-3-yl)-2-pyrimidinyl]amino]-2-[methyl[2-(methylamino)ethyl]amino]phenyl]-2-Propenamide hydrochloride]
compound concentration up to which total amount of cells remained close to 100% (low toxicity) [1]: about 5.0 μM | STD effect with tau fibrils (fibril binding epitopes) (2N4R Tau fibrils): Protons showing STD effects | binding to tau (NMR spectroscopy) (15N-labeled 2N4R tau): reveals binding | dissolution of 2N4R tau aggregates (reduction of ThT fluorescence intensity) (2N4R tau aggregates): partially dissolve

Structure (SMILES): C=CC(=O)Nc1cc(Nc2nccc(-c3cn(C)c4ccccc34)n2)c(OC)cc1N(C)CCNC [AZ7550 mesylate, N-[4-methoxy-5-[[4-(1-methyl-1H-indol-3-yl)-2-pyrimidinyl]amino]-2-[methyl[2-(methylamino)ethyl]amino]phenyl]-2-Propenamide]
tau-induced degeneration of Drosophila eyes (percent degeneration, light microscopy) [2]: rescue tau-induced degeneration of Drosophila eyes

Structure (SMILES): C=CC(=O)Nc1cc(Nc2cc(-c3cn(C)c4ccccc34)nc(OC)n2)c(OC)cc1N(C)CCN(C)C [Compound 9]
compound concentration up to which total amount of cells remained close to 100% (low toxicity) [1]: about 4.0 μM

Structure (SMILES): O=C(O[C@@H]1Cc2c(O)cc(O)cc2O[C@@H]1c1cc(O)c(O)c(O)c1)c1cc(O)c(O)c(O)c1 [EGCG]
inhibitory activity toward the aggregation of tau in HEK biosensor cells (number of cells with aggregates relative to DMSO) ([1]; control compounds compared with Osimertinib, compound 2 and compound 3): much lower inhibitory activity

Further lines, with some results ahead:

In vitro seeded aggregation/fibrillization of full-length tau (ThT fluorescence curves) (2N4R tau; 2N4R tau, various formulations): inhibited in a dose-dependent manner
Structure (SMILES): C=CC(=O)Nc1cc(Nc2nccc(-c3cn(C)c4ccccc34)n2)c(OC)cc1N(C)CCNC [Compound 2]
covalent modification of cysteines in tau (ESI-MS) (tau(244-372, 13818 Da)): confirms covalent modification of cysteines

efficacy of aggregation delay compared to Compound 1 (2N4R tau; 1:3 Tau:compound mole ratio, 2.5% (v/v) DMSO): notably more efficacious | normalized Tm, extent of aggregation delay (2N4R tau; 1:3 Tau:compound mole ratio, 2.5% (v/v) DMSO, at least 3 replicates): significant delay of aggregation
Structure (SMILES): C=CC(=O)Nc1cc(COc2cc(-c3cn(C)c4ccccc34)ccn2)ccc1N1CCCC1 [Compound 31]
